From patent US11000039B2, “Composition for controlling nematode comprising grammicin compound as effective ingredient and uses thereof” (INDUSTRY FOUNDATION OF CHONNAM NATIONAL UNIVERSITY, priority 2016, dated 2021)
Values after ≈ are worked out from the molar mass of the structure shown.

What was measured:
[1] = test system: carrot root knot nematode (M. hapla) 2nd stage juveniles; assay: Mortality against 2nd stage juveniles of carrot root knot nematode; design: species or system Meloidogyne hapla; conditions: 72 h; for LC50: 2nd stage juveniles
[2] = test system: colon cancer cell SW.71; assay: MTT cell viability assay (human cytotoxicity); conditions: for Cytotoxicity, in words: test concentration 0.1 to 10 μg/ml; for Cytotoxicity, in words / Cell viability compared to the non-treatment group: 24 hours
Procedure: The colon cancer cell SW.71 as a cell line used for the experiment was kept in −196° C. liquid nitrogen tank until use. The colon cancer cell SW.71 was added, in RPMI-1640 (Life Technologies Inc., USA) medium, with 10% FBS (fetal bovine serum, Gibco) and 1% penicillin-streptomycin, cultured for 72 hours in an incubator at condition of 37° C., 5% CO2, and then used. As for the MTT reagent, thiazolyl blue tetrazolium bromide was used, and, after dissolving it in PBS (phosphate buffer saline) to have final concentration of 5 mg/ml, it was kept at 4° C. under light-shielding condition. The colon cancer cell SW.71 was inoculated, in an amount of 130 μl, to a 96-well plate to have concentration of 5×10^3 or 1×10^4 cells/well. […] After culturing the cells for 24 hours, the MTT solution was added in an amount of 14.5 μl for each well followed by culture for 2 hours or longer at 37° C. The medium was carefully removed and DMSO was added in an amount of 108.5 μl per well to terminate the reaction followed by stirring using a plate shaker for 30 minutes at room temperature, dark conditions. Thereafter, by using a microplate ELISA reader, absorbance at a wavelength of 540 nm was measured, and the cell viability after culture for 24 hours was examined. For the non-treatment group, 1% MeOH was added to a DMEM medium. All the experiments were repeated in triplicate.

[3] = test system: sweet potato root knot nematode (M. incognita) 2nd stage juveniles; assay: organism not typed; conditions: for LC50: Meloidogyne incognita, read-out: LC50 M. incognita 72 h
Procedure: The three layers were finally applied at concentrations of 15.6, 31.3, 62.5, 125, 250, 500, or 1,000 μg/ml. As a control group, treatment with 1% acetone and methanol was carried out, and, after the treatment, the 96-well plate was shaken for 30 seconds so that the test compound is mixed well. Thereafter, the plate was added to a plastic container having relative humidity of 100% and stored at room temperature. To obtain eggs of a root knot nematode from roots of tomato infected by root knot nematode, plant roots were washed with tap water to remove adhering soil and cut into 1 cm pieces. Eggs were extracted in 0.5% sodium hypochlorite solution for 1 min and collected by passage through 45 and 25 μm sieves. Second-stage juveniles (J2) were allowed to hatch in modified Baermann funnels at 20° C.
Ninety nine μl of 50 2nd stage juveniles of sweet potato root knot nematode were added to each well of a 96-well plate, and then, according to a treatment of 1% solvent extract, the final volume per well was adjusted to 100 μl. […] 72 Hours after the treatment with a test compound, mortality was determined under an optical inverted microscope by using the equation shown below. As for the mortality, the linear nematode showing no movement was taken as dead nematode, the nematode showing movement of flexible curve was taken as live nematode, and the mortality was examined using the following equation. Mortality (%)=[Mortality percentage in treatment−mortality percentage of negative control/(100−mortality percentage in negative control)]×100
To determine the mortality and activity of inhibiting egg hatching of the purified compound, the compound was dissolved in methanol and trans-cinnamaldehyde as a control agent was dissolved in ethanol and used for the experiment. […] Furthermore, the activity of inhibiting egg hatching of sweet potato root knot nematode (M. incognita) was also examined at the same concentration. As a non-treatment group, 1% methanol and ethanol were used, and, according to the method explained above, the mortality and activity of inhibiting egg hatching were examined. The experiments were carried out in triplicate. The mortality was determined 3 days after the treatment of a test compound while the rate of inhibiting egg hatching was determined 14 days after the treatment of a test compound. The rate of inhibiting egg hatching was calculated based on the following equation. Egg hatching inhibitory activity (%)=[(C−T)/C]×100,

[4] = test system: eggs of sweet potato root knot nematode (M. incognita); assay: Egg hatching inhibitory activity against sweet potato root knot nematode; design: species or system Meloidogyne incognita; conditions: 336 h, 14 days after treatment, read-out: Rate of inhibiting egg hatching; for inhibition at 3.1 µg/mL: 3.1 μg/ml; for inhibition at 25 µg/mL: 25 μg/ml
Procedure: The experiments were carried out in triplicate. […] Egg hatching inhibitory activity (%)=[(C−T)/C]×100,
C=Egg hatching rate of control group*, T=Egg hatching rate of treatment group *Egg hatching rate (%)=Number of juveniles/[Number of egg+Number of juveniles]×100

Q: What does the source list for `O=C1C=C2C(O)C=COC2O1` (stereo not shown) [grammicin]?
A: mortality at 25 µg/mL ([1]; 25 μg/ml, 3 days after treatment): 62.4%; mortality at 50 µg/mL ([1]; 50 μg/ml, 3 days after treatment): 100%; LC50 [1]: 3.12 µg/mL (≈ 20.2 µM); Cytotoxicity for colon cancer cells, in words (summary) ([2]; at a test concentration): no toxicity; Cytotoxicity, in words ([2]; 1×10^4 cells/well): no cytotoxicity; Cytotoxicity, in words ([2]; 5×10^3 cells/well): no cytotoxicity; Mortality against root knot nematodes, in words (summary) [3]: very high mortality; mortality at 12.5 µg/mL ([3]; 72 h): 52.8%; mortality at 50 µg/mL ([3]; 72 h): 100%; LC50 ([3]; 72 h): 15.9 µg/mL (≈ 103 µM); inhibition at 3.1 µg/mL [4]: 68.2%; inhibition at 25 µg/mL [4]: 91.4%

Q: `O=C1C=C2C(=CCOC2O)O1` (stereo not shown) [patulin] was tested. Which “Cell viability compared to the non-treatment group” value ([2]; 0.1 μg/ml, 1×10^4 cells/well) did it give?
A: The value was 66.2%.

Q: What about the “Cell viability compared to the non-treatment group” value ([2]; 0.1 μg/ml, 5×10^3 cells/well) of the same compound?
A: Its value is 72.2%.

Q: What about the “Cell viability compared to the non-treatment group” value ([2]; 0.5 μg/ml, 1×10^4 cells/well) of the same compound?
A: The value was 80.5%.

Q: What about the “Cell viability compared to the non-treatment group” value ([2]; 0.5 μg/ml, 5×10^3 cells/well) of the same compound?
A: Its value is 72.1%.

Q: And the “Cell viability compared to the non-treatment group” value ([2]; 1 μg/ml, 1×10^4 cells/well)?
A: The value was 75.3%.

Q: And the “Cell viability compared to the non-treatment group” value ([2]; 1 μg/ml, 5×10^3 cells/well)?
A: Its value is 42.1%.

Q: And the “Cell viability compared to the non-treatment group” value ([2]; 5 μg/ml, 1×10^4 cells/well)?
A: Its value is 58.4%.

Q: And the “Cell viability compared to the non-treatment group” value ([2]; 5 μg/ml, 5×10^3 cells/well)?
A: Its value is 43.5%.

Q: What about the “Cell viability compared to the non-treatment group” value ([2]; 10 μg/ml, 1×10^4 cells/well) of the same compound?
A: Its value is 27.6%.

Q: And the “Cell viability compared to the non-treatment group” value ([2]; 10 μg/ml, 5×10^3 cells/well)?
A: Its value is 31.4%.

Q: And the “Mortality against root knot nematodes, in words (summary)” value [3]?
A: The value was “almost no activity”.

Q: What about the mortality at 100 µg/mL [3] of the same compound?
A: The mortality at 100 µg/mL was 38.7%.

Q: How did the LC50 [1] turn out when `O=C/C=C/c1ccccc1` [trans-cinnamaldehyde] was run?
A: Its LC50 is 8.56 µg/mL (≈ 64.8 µM).

Q: And the LC50 ([3]; 72 h)?
A: Its LC50 is 18.3 µg/mL (≈ 139 µM).

Q: And the inhibition at 3.1 µg/mL [4]?
A: The inhibition at 3.1 µg/mL was 31.3%.

Q: What about the inhibition at 25 µg/mL [4] of the same compound?
A: The inhibition at 25 µg/mL was 65%.
